Data reported in publication PMC11868595, “Safety, pharmacokinetics and efficacy of HA121-28 in patients with advanced solid tumors and RET fusion-positive non-small-cell lung cancer: a multicenter, open-label, single-arm phase 1/2 trial” (Signal Transduction and Targeted Therapy, 2025).
Marks after values point to notes of the source that are not given here.

Experiments:
[1] = biological target: FLT-1 (Homo sapiens, UniProt P17948); test: Tyrosine kinase inhibition; type: biochemical; details: read-out: IC50, FLT1
[2] = system: A375 cells; test: Tumor cell proliferation in vitro; type: cell-based, human
[3] = system: human gastric cancer SGC-7901 tumors; test: SGC-7901 tumors in nude mice; type: in vivo
Description: (§1) was higher than that of vandetanib .
as §1
Table S16. Efficacy of HA121-28 on human gastric cancer SGC-7901 tumors

[4] = Plasma protein binding; type: in vitro ADME; details: rats
[5] = Ames test; details: in vitro Ames test
[6] = system: Q-T interval; details: single oral dose 5, 10, and 15 mg/kg

FLT-1, sequence (P17948 27-1338): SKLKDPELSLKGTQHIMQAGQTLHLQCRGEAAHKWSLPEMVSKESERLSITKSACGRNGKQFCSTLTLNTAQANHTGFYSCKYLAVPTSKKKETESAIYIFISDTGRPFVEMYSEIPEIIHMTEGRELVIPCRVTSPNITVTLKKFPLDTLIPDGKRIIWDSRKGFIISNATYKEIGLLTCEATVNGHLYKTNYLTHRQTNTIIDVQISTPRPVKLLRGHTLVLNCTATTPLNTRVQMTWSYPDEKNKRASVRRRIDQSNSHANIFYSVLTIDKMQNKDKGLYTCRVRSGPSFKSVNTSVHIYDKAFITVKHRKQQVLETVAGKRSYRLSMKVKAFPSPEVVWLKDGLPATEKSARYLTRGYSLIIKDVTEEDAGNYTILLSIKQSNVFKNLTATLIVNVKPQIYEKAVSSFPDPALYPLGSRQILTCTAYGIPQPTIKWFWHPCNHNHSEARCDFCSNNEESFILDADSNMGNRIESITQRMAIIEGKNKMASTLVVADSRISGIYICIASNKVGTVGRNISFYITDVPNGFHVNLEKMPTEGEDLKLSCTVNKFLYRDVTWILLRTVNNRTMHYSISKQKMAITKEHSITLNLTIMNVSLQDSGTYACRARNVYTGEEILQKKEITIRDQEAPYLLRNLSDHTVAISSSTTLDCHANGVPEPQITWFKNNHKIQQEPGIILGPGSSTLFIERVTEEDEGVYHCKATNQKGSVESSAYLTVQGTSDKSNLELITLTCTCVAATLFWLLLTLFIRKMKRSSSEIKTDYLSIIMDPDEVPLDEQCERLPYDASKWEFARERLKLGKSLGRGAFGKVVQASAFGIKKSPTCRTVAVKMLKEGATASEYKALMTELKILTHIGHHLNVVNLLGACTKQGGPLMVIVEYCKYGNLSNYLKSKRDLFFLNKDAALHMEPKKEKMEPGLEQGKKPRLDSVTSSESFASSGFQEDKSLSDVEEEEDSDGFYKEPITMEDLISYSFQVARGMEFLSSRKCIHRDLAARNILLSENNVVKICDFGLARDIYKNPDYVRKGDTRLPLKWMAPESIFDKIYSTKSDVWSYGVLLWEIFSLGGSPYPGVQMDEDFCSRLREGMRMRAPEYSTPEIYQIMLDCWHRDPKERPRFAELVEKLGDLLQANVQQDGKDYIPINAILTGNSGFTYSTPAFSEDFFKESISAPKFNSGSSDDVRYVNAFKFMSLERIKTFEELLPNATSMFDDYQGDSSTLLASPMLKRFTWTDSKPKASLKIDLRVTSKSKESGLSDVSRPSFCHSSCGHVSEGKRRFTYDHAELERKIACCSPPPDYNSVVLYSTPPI

COc1cc2c(Nc3ccc(Br)cc3F)ncnc2cc1OCCCCN(C)C.Cl.Cl [HA121-28, N-(4-bromo-2-fluorophenyl)-7-(4-(dimethylamino)butoxy)-6-methoxy quinazolin-4-amine dihydrochloride]
IC50 [1]: 20.9 nM | IC50 [2]: 716 ± 154 nM | RTV ±SD ([3]; 25 mg/kg): 7.2±1.0 | T/C ([3]; 25 mg/kg): 45.3% | Terminal Tumor Volume ([3]; 25 mg/kg): 1424.3±410.0** mm^3 | RTV ±SD ([3]; 50 mg/kg): 2.0±1.1 | T/C ([3]; 50 mg/kg): 12.8% | Terminal Tumor Volume ([3]; 50 mg/kg): 478.5±307.8** mm^3 | RTV ±SD ([3]; 75 mg/kg): 1.2±0.3 | T/C ([3]; 75 mg/kg): 7.6% | Terminal Tumor Volume ([3]; 75 mg/kg): 288.9±162.6** mm^3 | plasma protein binding rate [4]: 92.4±1.28% | genetic toxicity [5]: negative | Q-T interval and corrected Q-T interval [6]: mild prolongation
